Test results taken from US20100003191A1, “AURONE DERIVATIVE-CONTAINING COMPOSITION FOR DIAGNOSIS” (NAGASAKI UNIVERSITY, priority 2006, published 2010).

Assay: In vivo radioactivity biodistribution experiment in normal mice (Example 1, Table 13)
Set-up: species or system ddY mice
Procedure: ^125I-labeled compounds were diluted with 10% ethanol-containing physiological saline. […] After their blood was collected, organs were removed, and the weights and radioactivities thereof were measured.
When any of the aurone derivatives was used, sufficient radioactivity to perform imaging of intracerebral amyloid migrated to the brain from the early stage of injection (1.7-4.6% ID/g). […] It was also shown that, in any of the aurone derivatives, in vivo radioactivity behavior is discharged mainly from the liver to the bile duct and the intestinal tract.

CN(C)c1ccc(/C=C2\Oc3ccc([125I])cc3C2=O)cc1 [[^125I]7]
Biodistribution of radioactivity, Blood (2 min after injection): 2.69 (0.29) % injected dose per gram | Biodistribution of radioactivity, Blood (10 min after injection): 1.96 (0.34) % injected dose per gram | Biodistribution of radioactivity, Blood (30 min after injection): 1.48 (0.15) % injected dose per gram | Biodistribution of radioactivity, Blood (60 min after injection): 0.94 (0.25) % injected dose per gram | Biodistribution of radioactivity, Brain (2 min after injection): 1.89 (0.38) % injected dose per gram | Biodistribution of radioactivity, Brain (10 min after injection): 0.69 (0.21) % injected dose per gram | Biodistribution of radioactivity, Brain (30 min after injection): 0.26 (0.04) % injected dose per gram | Biodistribution of radioactivity, Brain (60 min after injection): 0.11 (0.03) % injected dose per gram | Biodistribution of radioactivity, Heart (2 min after injection): 3.80 (0.66) % injected dose per gram | Biodistribution of radioactivity, Heart (10 min after injection): 1.36 (0.66) % injected dose per gram | Biodistribution of radioactivity, Heart (30 min after injection): 0.55 (0.29) % injected dose per gram | Biodistribution of radioactivity, Heart (60 min after injection): 0.45 (0.11) % injected dose per gram | Biodistribution of radioactivity, Intestine (2 min after injection): 1.65 (0.35) % injected dose per gram | Biodistribution of radioactivity, Intestine (10 min after injection): 5.37 (1.10) % injected dose per gram | Biodistribution of radioactivity, Intestine (30 min after injection): 9.50 (1.45) % injected dose per gram | Biodistribution of radioactivity, Intestine (60 min after injection): 11.85 (2.70) % injected dose per gram | Biodistribution of radioactivity, Kidney (2 min after injection): 7.84 (1.92) % injected dose per gram | Biodistribution of radioactivity, Kidney (10 min after injection): 8.31 (3.19) % injected dose per gram | Biodistribution of radioactivity, Kidney (30 min after injection): 10.37 (2.34) % injected dose per gram | Biodistribution of radioactivity, Kidney (60 min after injection): 4.51 (1.43) % injected dose per gram | Biodistribution of radioactivity, Liver (2 min after injection): 10.21 (1.87) % injected dose per gram | Biodistribution of radioactivity, Liver (10 min after injection): 7.86 (2.25) % injected dose per gram | Biodistribution of radioactivity, Liver (30 min after injection): 5.60 (0.59) % injected dose per gram | Biodistribution of radioactivity, Liver (60 min after injection): 4.33 (0.76) % injected dose per gram | Biodistribution of radioactivity, Lung (2 min after injection): 4.02 (0.83) % injected dose per gram | Biodistribution of radioactivity, Lung (10 min after injection): 2.44 (0.54) % injected dose per gram | Biodistribution of radioactivity, Lung (30 min after injection): 1.51 (0.41) % injected dose per gram | Biodistribution of radioactivity, Lung (60 min after injection): 1.17 (0.26) % injected dose per gram | Biodistribution of radioactivity, Pancreas (2 min after injection): 3.17 (0.68) % injected dose per gram | Biodistribution of radioactivity, Pancreas (10 min after injection): 1.04 (0.25) % injected dose per gram | Biodistribution of radioactivity, Pancreas (30 min after injection): 0.55 (0.21) % injected dose per gram | Biodistribution of radioactivity, Pancreas (60 min after injection): 0.30 (0.06) % injected dose per gram | Biodistribution of radioactivity, Spleen (2 min after injection): 1.76 (0.28) % injected dose per gram | Biodistribution of radioactivity, Spleen (10 min after injection): 0.81 (0.54) % injected dose per gram | Biodistribution of radioactivity, Spleen (30 min after injection): 0.51 (0.10) % injected dose per gram | Biodistribution of radioactivity, Spleen (60 min after injection): 0.37 (0.11) % injected dose per gram | Biodistribution of radioactivity, Stomach (2 min after injection): 1.21 (0.29) % injected dose per organ | Biodistribution of radioactivity, Stomach (10 min after injection): 1.35 (1.25) % injected dose per organ | Biodistribution of radioactivity, Stomach (30 min after injection): 1.87 (0.79) % injected dose per organ | Biodistribution of radioactivity, Stomach (60 min after injection): 1.51 (1.04) % injected dose per organ

Nc1ccc(/C=C2\Oc3ccc([125I])cc3C2=O)cc1 [[^125I]14]
Biodistribution of radioactivity, Blood (2 min after injection): 3.64 (0.78) % injected dose per gram | Biodistribution of radioactivity, Blood (10 min after injection): 4.38 (0.52) % injected dose per gram | Biodistribution of radioactivity, Blood (30 min after injection): 2.87 (0.82) % injected dose per gram | Biodistribution of radioactivity, Blood (60 min after injection): 2.35 (1.38) % injected dose per gram | Biodistribution of radioactivity, Brain (2 min after injection): 4.57 (0.27) % injected dose per gram | Biodistribution of radioactivity, Brain (10 min after injection): 1.51 (0.17) % injected dose per gram | Biodistribution of radioactivity, Brain (30 min after injection): 0.49 (0.06) % injected dose per gram | Biodistribution of radioactivity, Brain (60 min after injection): 0.26 (0.03) % injected dose per gram | Biodistribution of radioactivity, Heart (2 min after injection): 6.77 (0.74) % injected dose per gram | Biodistribution of radioactivity, Heart (10 min after injection): 2.69 (0.45) % injected dose per gram | Biodistribution of radioactivity, Heart (30 min after injection): 1.30 (0.41) % injected dose per gram | Biodistribution of radioactivity, Heart (60 min after injection): 0.98 (0.25) % injected dose per gram | Biodistribution of radioactivity, Intestine (2 min after injection): 3.12 (0.85) % injected dose per gram | Biodistribution of radioactivity, Intestine (10 min after injection): 5.06 (1.51) % injected dose per gram | Biodistribution of radioactivity, Intestine (30 min after injection): 15.47 (5.48) % injected dose per gram | Biodistribution of radioactivity, Intestine (60 min after injection): 18.30 (7.21) % injected dose per gram | Biodistribution of radioactivity, Kidney (2 min after injection): 10.87 (2.95) % injected dose per gram | Biodistribution of radioactivity, Kidney (10 min after injection): 13.12 (4.30) % injected dose per gram | Biodistribution of radioactivity, Kidney (30 min after injection): 12.05 (5.44) % injected dose per gram | Biodistribution of radioactivity, Kidney (60 min after injection): 4.95 (1.82) % injected dose per gram | Biodistribution of radioactivity, Liver (2 min after injection): 9.17 (3.45) % injected dose per gram | Biodistribution of radioactivity, Liver (10 min after injection): 8.48 (2.84) % injected dose per gram | Biodistribution of radioactivity, Liver (30 min after injection): 7.64 (2.19) % injected dose per gram | Biodistribution of radioactivity, Liver (60 min after injection): 5.85 (1.09) % injected dose per gram | Biodistribution of radioactivity, Lung (2 min after injection): 9.06 (0.47) % injected dose per gram | Biodistribution of radioactivity, Lung (10 min after injection): 7.01 (0.28) % injected dose per gram | Biodistribution of radioactivity, Lung (30 min after injection): 5.83 (0.55) % injected dose per gram | Biodistribution of radioactivity, Lung (60 min after injection): 5.23 (1.44) % injected dose per gram | Biodistribution of radioactivity, Pancreas (2 min after injection): 4.96 (0.44) % injected dose per gram | Biodistribution of radioactivity, Pancreas (10 min after injection): 2.01 (0.49) % injected dose per gram | Biodistribution of radioactivity, Pancreas (30 min after injection): 1.22 (0.21) % injected dose per gram | Biodistribution of radioactivity, Pancreas (60 min after injection): 0.87 (0.30) % injected dose per gram | Biodistribution of radioactivity, Spleen (2 min after injection): 2.29 (0.36) % injected dose per gram | Biodistribution of radioactivity, Spleen (10 min after injection): 1.64 (0.29) % injected dose per gram | Biodistribution of radioactivity, Spleen (30 min after injection): 0.84 (0.29) % injected dose per gram | Biodistribution of radioactivity, Spleen (60 min after injection): 0.92 (0.07) % injected dose per gram | Biodistribution of radioactivity, Stomach (2 min after injection): 1.59 (0.71) % injected dose per organ | Biodistribution of radioactivity, Stomach (10 min after injection): 2.94 (0.86) % injected dose per organ | Biodistribution of radioactivity, Stomach (30 min after injection): 4.01 (2.29) % injected dose per organ | Biodistribution of radioactivity, Stomach (60 min after injection): 3.49 (2.00) % injected dose per organ

COc1ccc(/C=C2\Oc3ccc([125I])cc3C2=O)cc1 [[^125I]17]
Biodistribution of radioactivity, Blood (2 min after injection): 3.16 (0.82) % injected dose per gram | Biodistribution of radioactivity, Blood (10 min after injection): 1.51 (0.23) % injected dose per gram | Biodistribution of radioactivity, Blood (30 min after injection): 0.95 (0.19) % injected dose per gram | Biodistribution of radioactivity, Blood (60 min after injection): 0.70 (0.60) % injected dose per gram | Biodistribution of radioactivity, Brain (2 min after injection): 1.69 (0.43) % injected dose per gram | Biodistribution of radioactivity, Brain (10 min after injection): 0.54 (0.12) % injected dose per gram | Biodistribution of radioactivity, Brain (30 min after injection): 0.11 (0.05) % injected dose per gram | Biodistribution of radioactivity, Brain (60 min after injection): 0.03 (0.02) % injected dose per gram | Biodistribution of radioactivity, Heart (2 min after injection): 3.84 (1.04) % injected dose per gram | Biodistribution of radioactivity, Heart (10 min after injection): 1.06 (0.10) % injected dose per gram | Biodistribution of radioactivity, Heart (30 min after injection): 0.37 (0.09) % injected dose per gram | Biodistribution of radioactivity, Heart (60 min after injection): 0.25 (0.12) % injected dose per gram | Biodistribution of radioactivity, Intestine (2 min after injection): 1.59 (0.51) % injected dose per gram | Biodistribution of radioactivity, Intestine (10 min after injection): 4.70 (1.46) % injected dose per gram | Biodistribution of radioactivity, Intestine (30 min after injection): 11.67 (3.56) % injected dose per gram | Biodistribution of radioactivity, Intestine (60 min after injection): 9.02 (3.14) % injected dose per gram | Biodistribution of radioactivity, Kidney (2 min after injection): 7.26 (2.18) % injected dose per gram | Biodistribution of radioactivity, Kidney (10 min after injection): 7.00 (1.49) % injected dose per gram | Biodistribution of radioactivity, Kidney (30 min after injection): 4.93 (1.52) % injected dose per gram | Biodistribution of radioactivity, Kidney (60 min after injection): 2.43 (1.17) % injected dose per gram | Biodistribution of radioactivity, Liver (2 min after injection): 6.87 (2.18) % injected dose per gram | Biodistribution of radioactivity, Liver (10 min after injection): 5.16 (0.73) % injected dose per gram | Biodistribution of radioactivity, Liver (30 min after injection): 2.76 (0.40) % injected dose per gram | Biodistribution of radioactivity, Liver (60 min after injection): 1.86 (0.83) % injected dose per gram | Biodistribution of radioactivity, Lung (2 min after injection): 6.71 (1.39) % injected dose per gram | Biodistribution of radioactivity, Lung (10 min after injection): 1.76 (0.29) % injected dose per gram | Biodistribution of radioactivity, Lung (30 min after injection): 0.97 (0.20) % injected dose per gram | Biodistribution of radioactivity, Lung (60 min after injection): 0.75 (0.33) % injected dose per gram | Biodistribution of radioactivity, Pancreas (2 min after injection): 2.83 (0.75) % injected dose per gram | Biodistribution of radioactivity, Pancreas (10 min after injection): 0.77 (0.17) % injected dose per gram | Biodistribution of radioactivity, Pancreas (30 min after injection): 0.29 (0.14) % injected dose per gram | Biodistribution of radioactivity, Pancreas (60 min after injection): 0.16 (0.05) % injected dose per gram | Biodistribution of radioactivity, Spleen (2 min after injection): 1.45 (0.56) % injected dose per gram | Biodistribution of radioactivity, Spleen (10 min after injection): 0.74 (0.10) % injected dose per gram | Biodistribution of radioactivity, Spleen (30 min after injection): 0.48 (0.10) % injected dose per gram | Biodistribution of radioactivity, Spleen (60 min after injection): 0.43 (0.14) % injected dose per gram | Biodistribution of radioactivity, Stomach (2 min after injection): 0.68 (0.33) % injected dose per organ | Biodistribution of radioactivity, Stomach (10 min after injection): 1.06 (0.66) % injected dose per organ | Biodistribution of radioactivity, Stomach (30 min after injection): 0.48 (0.09) % injected dose per organ | Biodistribution of radioactivity, Stomach (60 min after injection): 0.96 (0.46) % injected dose per organ
